Reference: patent publication US4591601A, “Anticonvulsant dioxolane methane sulfamates” (McNeilab, Inc., priority 1985, dated 1986)

Test system: tonic extensor seizure
Assay: maximal electroshock test (MES), block of tonic extensor seizure
Assay type: in vivo, mice (male albino, Swiss Webster)
Conditions: Mus musculus, ip, 0.5 h; mice, i.p., tested 30 minutes after injection; 1b in aqueous solution, Examples 2 and 3 as suspensions with Tween 80 and water; probit analysis
Experimental: The compounds of formula (I) are useful as anticonvulsant agents. The anticonvulsant activity of the subject compounds was determined using a standard "maximal electroshock test" (MES). In this test, activity is indicated by a block of the tonic extensor seizure caused by application of an electric shock to mice via corneal electrodes, as described by Swinyard et al in J. Pharmacol. Exptl. Therap. 106, 319 (1952). A more recent description of current anticonvulsant drug screening is given in Swinyard et al in Epilepsia 19, 409 (1978). Non-fasted male albino mice of the Swiss Webster strain (Royal-Hart Laboratories, New Hampton, N.Y.) weighing 18-24 grams were used in this test. Six to eight groups of ten mice each were used per ED50 determination. The product of Example 1b was administered in aqueous solution while the compounds produced in Examples 2 and 3 were administered as suspensions prepared with Tween 80 and water. Testing was conducted at 30 minutes following intraperitoneal injection of the test compound. A group of ten mice injected with saline 10 ml/kg i.p. and tested 30 minutes later served as controls. ED50 's were calculated using a computerized probit analysis procedure.

SMILES | ED50 [mg/kg]
CCCCCCCCCC1(C)OCC(COS(N)(=O)=O)O1 (stereo not drawn) [Example 2, (2-Methyl-2-nonyl-1,3-dioxolan-4-yl)methyl sulfamic acid ester Hydrate compound with 2-undecanone (10:1:2)] | 319
CC1(C)OCC(COS(N)(=O)=O)O1 (stereo not drawn) [Example 1b, (2,2-Dimethyl-1,3-dioxolan-4-yl)methyl sulfamic acid ester] | 105
NS(=O)(=O)OCC1COC2(CCCCC2)O1 (stereo not drawn) [Example 3, (1,4-Dioxaspiro[4.5]dec-2-yl)methyl Sulfamic acid ester] | 169
